Measured values published in ChEMBL document CHEMBL5346975, “Conjugation of Vancomycin with a Single Arginine Improves Efficacy against Mycobacteria by More Effective Peptidoglycan Targeting” (2023).
In brackets after ≈: the same amount, converted by molar mass. Activity calls are given as the source filed them. The calls are words filed in the database; no cut-off is given here.

Legend:
Assay type in all cases: functional
[1] = tested on: Mycolicibacterium smegmatis; assay: Antibiofilm activity against Mycobacterium smegmatis 700084 assessed as eradication of preformed bacterial biofilm incubated for 24 hrs by crystal violet staining based assay
Bacillus subtilis [2] = assay: Antibacterial activity against Bacillus subtilis 23857 assessed as inhibition of bacterial growth incubated for 18 to 20 hrs by broth microdilution method; settings: time 18-20 hrs
[3] = tested on: Mycolicibacterium smegmatis; assay: (§1) Antibacterial activity of against Mycobacterium smegmatis 700084 assessed as Ac-Kaa-induced neutralization of antibiotic effect by measuring molar excess ratio of smallest concentration of AC-Kaa required to neutralize antibiotic effect to MIC of antibiotic at 16 uM incubated for 48 hrs by resazurin dye based broth microdilution method
[4] = tested on: Mycobacteroides abscessus; assay: Synergistic antibacterial activity against Mycobacterium abscessus 19977 assessed as test compound MIC incubated for 72 hrs in presence of 78 uM ethambutol by checkerboard assay
Mycobacterium kansasii = assay: Antibacterial activity against Mycobacterium kansasii 12478 assessed as inhibition of bacterial growth incubated for 6 to 7 days by resazurin dye based broth microdilution method; settings: time 6-7 day
[5] = tested on: Mycobacteroides abscessus; assay: Synergistic antibacterial activity against Mycobacterium abscessus 19977 assessed as fractional inhibitory concentration index incubated for 72 hrs in presence of ethambutol by checkerboard assay
[6] = tested on: Corynebacterium glutamicum; assay: as §1, with “Corynebacterium glutamicum 13032” for “Mycobacterium smegmatis 700084”, “0.25” for “16”
[7] = tested on: Mycolicibacterium smegmatis; assay: Synergistic antibacterial activity against Mycobacterium smegmatis 700084 assessed as fractional inhibitory concentration index incubated for 48 hrs in presence of ethambutol by checkerboard assay
Mycobacterium avium [8] = assay: Antibacterial activity against Mycobacterium avium 700898 assessed as inhibition of bacterial growth incubated for 6 to 7 days by resazurin dye based broth microdilution method; settings: time 6-7 day
[9] = tested on: Mycobacteroides abscessus; assay: Antibacterial activity against Mycobacterium abscessus 19977 assessed as elimination of viable bacteria at 2 times MIC measured after 50 hrs by time kill assay relative to control
Mycobacterium avium [10] = assay: Antibacterial activity against Mycobacterium avium 25291 assessed as inhibition of bacterial growth incubated for 6 to 7 days by resazurin dye based broth microdilution method; settings: time 6-7 day
[11] = tested on: Mycobacteroides abscessus; assay: Antibacterial activity against Mycobacterium abscessus 19977 assessed as inhibition of bacterial growth incubated for 72 hrs by resazurin dye based broth microdilution method
[12] = tested on: Mycolicibacterium smegmatis; assay: Inhibition of peptidoglycan biosynthesis in Mycobacterium smegmatis 700084 assessed as increase in N-glycolyl modified precursor UDP-MurNGlyc-pentapeptide accumulation at 10 uM incubated for 4 hrs by RP-HPLC method
[13] = tested on: Corynebacterium glutamicum; assay: Antibacterial activity against Corynebacterium glutamicum 13032 assessed as inhibition of bacterial growth incubated for 18 to 20 hrs by broth microdilution method; settings: time 18-20 hrs
[14] = tested on: Mycobacteroides abscessus; assay: Synergistic antibacterial activity against Mycobacterium abscessus 19977 assessed as test compound MIC incubated for 72 hrs in presence of 39 uM ethambutol by checkerboard assay
Bacillus subtilis [15] = assay: as §1, with “Bacillus subtilis 23857” for “Mycobacterium smegmatis 700084”, “0.25” for “16”
[16] = tested on: Mycolicibacterium smegmatis; assay: Inhibition of biofilm formation in Mycobacterium smegmatis 700084 assessed as reduction in wrinkled pellicle formation incubated for 5 days; settings: time 5 day
[17] = tested on: Mycolicibacterium smegmatis; assay: Antibacterial activity against Mycobacterium smegmatis 700084 assessed as inhibition of bacterial growth incubated for 48 hrs by resazurin dye based broth microdilution method

SMILES	MBEC [1]	MIC (Bacillus subtilis [2]) [µM]	Ratio [3]	MIC [4] [µM]	MIC (Mycobacterium kansasii) [µM]	fractional inhibitory concentration index (FICI) [5]	Ratio [6]	fractional inhibitory concentration index (FICI) [7]	MIC (Mycobacterium avium [8]) [µM]	Activity [9] [%]	MIC (Mycobacterium avium [10]) [µM]	MIC [11] [µM]	inhibition [12]	MIC [13] [µM]	MIC [14] [µM]	Ratio (Bacillus subtilis [15])	BBC [16] [µM]	MIC [17] [µM]
CC[C@@H](CO)NCCN[C@@H](CC)CO [ETHAMBUTOL]	>256 µg/mL	–	–	–	–	–	–	–	–	–	–	–	–	–	–	–	–	–
CO[C@H]1/C=C/O[C@@]2(C)Oc3c(C)c(O)c4c(O)c(c(/C=N/N5CCN(C)CC5)c(O)c4c3C2=O)NC(=O)/C(C)=C\C=C\[C@H](C)[C@H](O)[C@@H](C)[C@@H](O)[C@@H](C)[C@H](OC(C)=O)[C@@H]1C [RIFAMPIN]	156 µM	–	–	–	–	–	–	–	–	–	–	–	–	–	–	–	–	–
CN[C@H](CC(C)C)C(=O)N[C@H]1C(=O)N[C@@H](CC(N)=O)C(=O)N[C@H]2C(=O)N[C@H]3C(=O)N[C@H](C(=O)N[C@H](C(=O)O)c4cc(O)cc(O)c4-c4cc3ccc4O)[C@H](O)c3ccc(c(Cl)c3)Oc3cc2cc(c3O[C@@H]2O[C@H](CO)[C@@H](O)[C@H](O)[C@H]2O[C@H]2C[C@](C)(N)[C@H](O)[C@H](C)O2)Oc2ccc(cc2Cl)[C@H]1O [VANCOMYCIN]	64 µM	0.25 (≈ 0.362 µg/mL)	3.9	2	24 (≈ 34.8 µg/mL)	0.17	62.5	0.28	64 (≈ 92.8 µg/mL)	>95	> 256	64 (≈ 92.8 µg/mL)	Active	0.25 (≈ 0.362 µg/mL)	3	15.6	0.5	8 (≈ 11.6 µg/mL)
